According to patent US20050222100A1 (priority 2002, published 2005):

Assay: Pilot study: irregular vaginal bleeding
Type: in vivo, post-menopausal women
Conditions: 2.5 mg tibolone per day added to 20 mg tamoxifen per day
Text: The women, all below the age of 65 years, were postmenopausal for at least three years at the time of diagnosis. Their follicle stimulating hormone (FSH) levels were greater than 40 IU/L and their estradiol (E2) levels were below 20 pg/mL.

Compound: C#C[C@]1(O)CC[C@H]2[C@@H]3[C@H](C)CC4=C(CCC(=O)C4)[C@H]3CC[C@@]21C [Tibolone, (7α, 17α)-17-hydroxy-7-methyl-19-nor-17-pregn-5(10)-en-20-yn-3-one]
- effect on irregular bleeding: minimal effect
